Measured values from patent US11090389B2, “Mitochondrially targeted PARP inhibitor, and uses thereof” (University of Pittsburgh—Of the Commonwealth System of …, priority 2016, dated 2021).

Columns and labels:
PARP1 [1] = target: T1, PARP1 (Homo sapiens, UniProt P09874); test: PARP1 activity, commercial assay (Trevigen), histone-coated wells with active PARP1 enzyme and NAD+; assay type: biochemical; settings: active PARP1 enzyme; triplicate; FIG. 4
Procedure: The capacity to inhibit PARP1 was determined using a commercial assay (Trevigen, Gaithersburg, Md.) as per manufacturer's direction.

[2] = system: rat primary cortical neurons; test: Cytotoxicity in rat primary cortical neurons, LDH release at 24 h; settings: for concentration at which neurotoxicity (defined as >10% cell death) was seen: n=6/group
Procedure: Cytotoxicity was assessed by LDH release from dying neurons at 24 h.

[3] = Mitochondrial enrichment: LC-MS quantification in mitochondria- and nuclear-enriched fractions of neurons; assay type: in vitro ADME, rat; settings: neurons exposed to 100 nM for 24 h; mean±SD; n=3
Procedure: Water (150 μL) was added and the solution was vortexed (15 sec) and set aside to equilibrate at room temperature (30 min). The resulting suspension was placed in an Eppendorf Centrifuge 5702 (4400 rpm, 20° C.) for 12 min. The organic layer was extracted and filtered through a 0.45 μm filter for analysis.
The concentration was reported as pM concentration of XJB-Veliparib per 10 μg of protein with corresponding standard deviation values.
To verify mitochondrial enrichment, rat primary cortical neurons were exposed to 100 nM XJB-veliparib for 24 h. Mitochondria- and nuclear-enriched subcellular fractions were obtained and verified by western blot using antibodies against the cytochrome oxidase subunit Vα (COX Vα) and histone H3, respectively (FIG. 6A). In mitochondria-enriched fractions, the LCMS analysis of XJB-veliparib indicated a concentration of 116±55 pmol/10 μg protein compared with 29±27 pmol/10 μg protein in nuclear-enriched fractions (FIG. 6B; mean±standard deviation [SD]; n=3 independent experiments).

PARP1 [4] = target: T1, PARP1; test: PARP1 inhibitory capacity of mitochondria-enriched fractions spiked with active PARP1 enzyme; assay type: biochemical; settings: triplicate
primary cortical neurons [5] = test: Oxygen-glucose deprivation (OGD) in primary cortical neurons, LDH release; assay type: cell-based, rat
Procedure: (§1) To model ischemia-reperfusion in vitro, culture medium was replaced with a pre-equilibrated low glucose (0.5 mM) medium. Neurons were transferred into a sealed hypoxic chamber (Coy Laboratory Products Inc., Grass Lake, Mich.) set to an atmosphere of 95% N2 with 5% CO2 at 37° C. for 2 h. After OGD neurons were removed from the chamber and returned to the incubator.
To determine whether mitochondria-targeting XJB-veliparib can promote neuronal survival in ischemia-like conditions in vitro, primary cortical neurons at 12 DIV were subjected to OGD. Cultured neurons were exposed to a hypoxic and glucose-depleted environment for 2 h, followed by normal culture conditions for 24 h to mimic ischemia/reperfusion injury. […] Specifically, 10 nM XJB-veliparib reduced cell death by 67% (LDH release 12.4±3.1% vs. 38.0±2.5%, 10 nM XJB-veliparib vs. vehicle; mean±SD; P<0.05).

HT22 cells = test: Glutamate-induced ferroptotic cell death in HT22 cells, LDH release; assay type: cell-based, mouse; settings: 5 mM glutamate; for effect on glutamate-induced ferroptosis: LDH release at 24 h
Procedure: HT22 cells were cultured at 37° C. in Dulbecco's modified Eagle's medium (DMEM) (Invitrogen Inc., Carlsbad, Calif.) supplemented with 10% fetal bovine serum (FBS) (Thermo Fisher Scientific, San Jose, Calif.) and 1% penicillin-streptomycin (ATCC, Manassas, Va.) in an atmosphere containing 5% CO2. Cells were cultured for 24 to 48 hr before use.

primary cortical neurons [6] = test: Mitochondrial and cytosolic NAD+ concentration in primary cortical neurons after OGD; assay type: cell-based, rat; settings: for mitochondrial NAD+ stores after OGD: 10 nM before OGD, measured 24 h after OGD
Procedure: FIG. 8. Mitochondrial and cytosolic NAD^+ concentration in primary cortical neurons after OGD. […] NAD+ concentration measured 24 h after OGD. Assay performed in duplicate.
as §1

primary cortical neurons [7] = test: Cellular localization of poly(ADP-ribose) polymers after OGD (immunofluorescence, confocal and STED microscopy); assay type: cell-based, rat; settings: 10 nM, OGD 2 h; for PAR immunofluorescence after OGD (confocal): triplicate
Procedure: Neurons grown on poly-D-lysine coated glass coverslips were fixed in 2% paraformaldehyde and permeabilized with TritonX-100. Coverslips were then incubated in a 1:200 dilution of mouse monoclonal antibody against PAR (SA216, ENzo Life Sciences, Inc., Farmingdale, N.Y.) and an antibody against TOMM20 (Abcam, Cambridge, Mass.) followed by incubation in the appropriate secondary antibodies. Cell nuclei were labelled with 4′,6 diamidino-2-phenylindole (DAPI) for standard confocal microscopy or DRAQ5 (both from ThermoFisher Scientific, Waltham, Mass.) for STED microscopy. Images were collected using an Olympus Fluoview 1000 confocal microscope (Olympus Corporation of the Americas, Center Valley, Pa.).
For STED imaging a Leica TCS SP8 super resolution STED microscope with a pulsed white light laser and AOBS detection system was used (Leica Microsystems, Wetzlar, Germany). Images were collected using the 775 nm STED laser line with 30% 3D STED using the Leica STED WHITE oil objective lens (HC PL APO 100×/1.40 OIL) with a 200 Hz scan speed and 2× line averaging. Pixel size was set to 45 nm/pixel, step size was set to […], and pinhole was set at 132.8 μm (0.875 AU). TOMM20 was visualized using Alexa Fluor 555, exciting at 553 nm and detecting between 558-599 nm and temporally gate between […]. PAR was visualized with Alexa Fluor 594, exciting at 598 nm and detecting between 603-666 nm and temporally gated between 0.3-6.0 nsec. DRAQ5 (ThermoFisher Scientific, Waltham, Mass.) was excited at 662 and detected between 667 to 780 nm and temporally gated between 0.3-6.0 nsec. Channels were collected between stacks, sequentially.
The cellular localization of poly(ADP-ribose) (PAR) polymers, a footprint of PARP activation, was examined in primary cortical neurons after OGD using immunohistochemistry and confocal microscopy.
To evaluate the impact of XJB-veliparib on mitochondrial structure after OGD, we used stimulation emission depletion (STED) microscopy and immunohistochemistry. Primary rat cortical neurons were treated with 10 nM XJB-veliparib or vehicle and then exposed to OGD for 2 h.

[8] = system: mouse embryo fibroblasts (MEF); test: IR-induced cell death in mouse embryo fibroblasts, Annexin V/PI flow cytometry; assay type: cell-based; settings: for survival after IR: 10, 20 μM for 30 min prior to 10 Gy IR, survival at 48 h, mean±SD, vehicle 68.4%±2.2
Procedure: MEF cells were treated with 10, 20 μM XJB-veliparib for 30 min prior to 10 Gy IR (309 R/min, Cs137 source), media was changed to drugless media 4 h post-IR. Survival was assessed at 48 h by Annexin V-FTIC/PI flow cytometry. […] Mean±SD, *p<0.05, ****p<0.0001.

[9] = system: mouse embryo fibroblasts (MEF); test: γ-irradiation-induced mitochondrial DNA damage in MEFs (qPCR); assay type: cell-based; settings: 20 μM for 30 min prior to 10 Gy IR
Procedure: PARylation of mtDNA repair enzymes, polymerase-γ and exo/endonucleaseG, by mt-PARP1 is thought interfere with normal mtDNA repair. […] Cells were harvested and DNA extracted 4 and 24 h post-IR. […] ANOVA, *p<0.05, **p<0.01.

T1 sequence (P09874 whole entry): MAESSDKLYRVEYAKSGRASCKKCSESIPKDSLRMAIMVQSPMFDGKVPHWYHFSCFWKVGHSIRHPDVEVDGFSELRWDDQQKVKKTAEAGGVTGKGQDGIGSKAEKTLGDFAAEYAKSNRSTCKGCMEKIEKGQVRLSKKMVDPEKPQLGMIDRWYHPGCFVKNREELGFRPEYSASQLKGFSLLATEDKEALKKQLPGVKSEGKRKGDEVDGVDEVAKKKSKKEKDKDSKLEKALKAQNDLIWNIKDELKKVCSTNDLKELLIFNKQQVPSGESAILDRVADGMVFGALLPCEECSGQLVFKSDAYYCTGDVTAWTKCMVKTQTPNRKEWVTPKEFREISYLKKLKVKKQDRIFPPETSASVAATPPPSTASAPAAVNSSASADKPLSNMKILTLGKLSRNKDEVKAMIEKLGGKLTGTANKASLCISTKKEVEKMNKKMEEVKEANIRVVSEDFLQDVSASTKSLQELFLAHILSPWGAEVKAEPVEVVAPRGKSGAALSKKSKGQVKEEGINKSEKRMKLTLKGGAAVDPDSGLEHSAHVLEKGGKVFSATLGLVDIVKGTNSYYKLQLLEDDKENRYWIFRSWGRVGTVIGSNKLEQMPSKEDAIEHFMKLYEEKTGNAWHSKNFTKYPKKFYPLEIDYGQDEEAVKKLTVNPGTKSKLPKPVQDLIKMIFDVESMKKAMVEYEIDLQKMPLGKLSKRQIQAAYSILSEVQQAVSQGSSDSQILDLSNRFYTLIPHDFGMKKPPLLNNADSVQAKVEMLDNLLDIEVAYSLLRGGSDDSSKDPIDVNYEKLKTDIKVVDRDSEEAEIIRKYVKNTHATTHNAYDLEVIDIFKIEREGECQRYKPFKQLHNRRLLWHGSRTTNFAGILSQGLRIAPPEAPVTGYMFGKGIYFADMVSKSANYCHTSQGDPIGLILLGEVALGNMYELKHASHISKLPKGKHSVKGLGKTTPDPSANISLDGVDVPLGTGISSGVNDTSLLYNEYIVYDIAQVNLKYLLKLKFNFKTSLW

CC(C)C[C@@H](/C=C/[C@H](Cc1ccccc1)C(=O)N1CCC[C@H]1C(=O)N[C@H](C(=O)N[C@@H](CCCNC(=O)OCc1ccccc1)C(=O)NCCCNC(=O)c1cccc2[nH]c([C@]3(C)CCCN3)nc12)C(C)C)NC(=O)OC(C)(C)C [XJB-Veliparib, tert-Butyl ((4S,7S, E)-7-benzyl-2-methyl-8-((S)-2-(((S)-3-methyl-1-(((S)-15-(2-((S)-2-methylpyrrolidin-2-yl)-1H-benzo[d]imidazol-4-yl)-3,9,15-trioxo-1-phenyl-2-oxa-4, 10,14-triazapentadecan-8-yl)amino)-1-oxobutan-2-yl)carbamoyl)pyrrolidin-1-yl)-8-oxooct-5-en-4-yl)carbamate]
PARP1 inhibition compared with untargeted veliparib (PARP1 [1]): similar | cytotoxicity compared with unconjugated veliparib ([2]; P<0.05): significantly less toxic | concentration at which neurotoxicity (defined as >10% cell death) was seen [2]: 10 µM | concentration in mitochondria-enriched fractions [3]: 116±55 pmol/10 μg protein | concentration in nuclear-enriched fractions [3]: 29±27 pmol/10 μg protein | PARP1 inhibitory capacity of mitochondria-enriched fractions compared to unconjugated veliparib (PARP1 [4]): greater PARP1 inhibitory capacity | LDH release after OGD (primary cortical neurons [5]; 10 nM, 2 h OGD, then 24 h, mean±SD, vehicle 38.0±2.5%): 12.4±3.1% | reduction of OGD-induced cell death vs. vehicle (primary cortical neurons [5]; 10 nM, 2 h OGD, then 24 h normal culture): 67% | effect on OGD-induced cell death at low nanomolar concentrations (primary cortical neurons [5]; 2 h OGD, then 24 h): significantly attenuated OGD-induced cell death | protection against OGD at concentrations >100 nM (primary cortical neurons [5]): no additional protection | efficacy vs. veliparib at higher concentrations (HT22 cells; 10 μM, LDH at 24 h): slightly more effective than veliparib | effect on glutamate-induced ferroptosis (HT22 cells): inhibit glutamate-induced ferroptosis | mitochondrial NAD+ stores after OGD (primary cortical neurons [6]): preserve mitochondrial NAD^+ stores | efflux of NAD+ from the mitochondria to the cytosol (primary cortical neurons [6]; 10 nM, 24 h after OGD): prevented efflux of NAD^+ from the mitochondria to the cytosol | mitochondrial architecture after OGD (STED) (primary cortical neurons [7]): partially preserved | PAR immunoreactivity after OGD vs. vehicle (STED) (primary cortical neurons [7]; 1 h): reduced | PAR immunofluorescence after OGD (confocal) (primary cortical neurons [7]): reduction of PAR immunofluorescence | concentration at which radiation damage was decreased [8]: ≥ 5 µM | survival after IR [8]: 90.1% | number of PCR-detectable mtDNA lesions following γ-IR ([9]; DNA extracted 4 and 24 h post-IR, vehicle 0.48±0.03): 0.30±0.03

CC1(c2nc3c(C(N)=O)cccc3[nH]2)CCCN1 (stereo in doubt) [veliparib, 1,2-[(S)-2-methylpyrrolidin-2-yl]-1H-benzimidazole-4-carboxamide, reference compound]
concentration at which neurotoxicity (defined as >10% cell death) was seen [2]: 1 µM | protection against OGD at concentrations >100 nM (primary cortical neurons [5]): no additional protection | effect on glutamate-induced ferroptosis (HT22 cells): inhibit glutamate-induced ferroptosis | mitochondrial NAD+ stores after OGD (primary cortical neurons [6]): preserve mitochondrial NAD^+ stores | PAR immunofluorescence after OGD (confocal) (primary cortical neurons [7]): reduction of PAR immunofluorescence | survival after IR [8]: 57.1% | effect on mtDNA lesions compared to vehicle irradiated cells [9]: no effect
